The text below walks through data of US20260256731A1, “RETINAL VASODILATOR AND PHARMACEUTICAL COMPOSITION” (TEIKYO UNIVERSITY, priority 2022, published 2026).

Read-outs that look alike come from different tables or passages of the source.

One assay concerns retinal blood vessel. Particulars: cited from earlier work.
The subject of assay [1] is porcine retinal artery treated with ODQ. In words: Retinal vasodilation test using porcine retinal extraction artery treated with ODQ (guanylate cyclase inhibitor). The class given is cell-based, pig. Here is the method:
(§1) Pigs aged 8 to 12 weeks were euthanized. Immediately after euthanization, the eyeballs were excised. A retinal artery was separated from the excised eyeballs (Nagaoka et al., Invest Ophthalmol Vis Sci. 2007 February; 48(2):825-32.). An anterior eye part and a vitreous body were carefully taken out with an anatomical microscope. A posterior eye part was placed in an ice-cold dissection chamber containing a physiological saline solution (PSS: 145.0 mM NaCl, 4.7 mM KCl, 2.0 mM CaCl2), 1.17 mM MgSO4, 1.2 mM NaH2PO4, 5.0 mM glucose, 2.0 mM pyruvic acid, 0.02 mM EDTA, and 3.0 mM [3-(N-morpholino) propanesulfonic acid] (MOPS)) to which 1% albumin was added. […] Thereafter, the inner diameter was continuously measured and recorded during the experiment. […]
(§2) The blood vessel was relaxed with EDTA (1 mM)-calcium-free PSS, and the maximum diameter was obtained at a lumen pressure of 55 cmH2O. The change in diameter of the blood vessel in response to nobiletin was standardized by the maximum vasodilation and expressed as a percentage with respect to the maximum vasodilation. […]
In the same manner as in Example 1, the porcine retinal extraction artery was treated with ODQ, and the role of guanylate cyclase in the retinal vasodilating effect of nobiletin was evaluated (n=7).

In the next assay the test system is rat aorta. Conditions: pre-contracted with phenylephrine; vascular endothelium-independent; cited from earlier work.
Assay [2] relates to porcine retinal artery denuded of endothelium. The assay is described as follows: Retinal vasodilation test using porcine retinal extraction artery denuded of endothelium (CHAPS). The class given is cell-based, pig. Particulars: n=11, FIG. 3 (Example 3). The method, then: as §1, with “added. A single secondary retinal artery (in-situ inner diameter: 90 to 130 μm, length: 0.6 to 1.0 mm) was carefully dissected using a Dumont microdissection forceps (Fine Science Tools, Inc., Foster City, CA) under observation with a stereomicroscope (model SZX12; Olympus, Melville, NY).” for “added.”
The blood vessel was relaxed with EDTA (1 mM)-calcium-free PSS, and the maximum diameter was obtained at a lumen pressure of 55 cmH2O. The change in diameter of the blood vessel in response to nobiletin was standardized by the maximum vasodilation and expressed as a percentage with respect to the maximum vasodilation.

A further assay has as its system rat pulmonary artery. Particulars: cited from earlier work.
The test system of a further assay is rat mesenteric artery. Particulars: pre-contracted with phenylephrine; vascular endothelium-dependent; cited from earlier work.
For the next assay, the system named is porcine retinal artery. The assay is described as follows: Retinal vasodilation test using porcine retinal extraction artery. The class given is cell-based, pig. Here is the method: Pigs aged 8 to 12 weeks were euthanized. Immediately after euthanization, the eyeballs were excised. A retinal artery was separated from the excised eyeballs (Nagaoka et al., Invest Ophthalmol Vis Sci. 2007 February; 48(2):825-32.). An anterior eye part and a vitreous body were carefully taken out with an anatomical microscope. A posterior eye part was placed in an ice-cold dissection chamber containing a physiological saline solution (PSS: 145.0 mM NaCl, 4.7 mM KCl, 2.0 mM CaCl2), 1.17 mM MgSO4, 1.2 mM NaH2PO4, 5.0 mM glucose, 2.0 mM pyruvic acid, 0.02 mM EDTA, and 3.0 mM [3-(N-morpholino) propanesulfonic acid] (MOPS)) to which 1% albumin was added. A single secondary retinal artery (in-situ inner diameter: 90 to 130 μm, length: 0.6 to 1.0 mm) was carefully dissected using a Dumont microdissection forceps (Fine Science Tools, Inc., Foster City, CA) under observation with a stereomicroscope (model SZX12; Olympus, Melville, NY). After carefully removing the remaining nerve tissue and connective tissue, an artery was transferred to a Lucite-made blood vessel chamber into which a PSS-albumin solution equilibrated with air at room temperature was added for cannula insertion. A glass micro pipette (outer diameter of distal end: 30 to 40 μm) filled with the PSS-albumin solution was used to cannulate one end of the artery, and the outside of the artery was firmly tied to a pipette with 11-0 ophthalmic suture (Alcon, Fort Worth, TX). The other end of the blood vessel was cannulated with a second micro pipette and fixed with a suture. After the cannula insertion, the blood vessel and the pipette were transferred to the stage of an inverted microscope (model CKX41, Olympus); and a video camera (Sony DXC-190, Labtek, Campbell, CA), a video micrometer (Cardiovascular Research Institute, Texas A&M System Health Science Center, College Station, TX), and a data collection system (PowerLab, ADInstruments, Colorado Springs, CO) were connected to each other. Thereafter, the inner diameter was continuously measured and recorded during the experiment. The micro pipette was connected to an independent pressure reservoir (a 30 mL glass syringe). The blood vessel was pressurized to a lumen pressure of 55 cm H2O (40 mmHg) by adjusting the height of the reservoir.
The cannula-inserted arteriole was immersed in PSS at 36° C. to 37° C. to generate a basal tone. […] After the control reaction was terminated, the blood vessel was washed with PSS, and the basal tone was re-generated. […]
as §2

Turning to `CC#CCC(C)[C@H](O)/C=C/[C@@H]1[C@H]2c3cccc(CCCC(=O)O)c3O[C@H]2C[C@H]1O` (mixture of isomers) [Beraprost], the Maximum vasodilation rate in the assay with retinal blood vessel (concentration 10^-7M) was 70%.
With `O=C1CCc2cc(OCCCCc3nnnn3C3CCCCC3)ccc2N1` [Cilostazol], the Maximum vasodilation rate in the assay with retinal blood vessel (concentration 10^-5M) was 40%.
On to `COc1ccc(-c2cc(=O)c3c(OC)c(OC)c(OC)c(OC)c3o2)cc1OC` [Nobiletin, 2-(3,4-Dimethoxyphenyl)-5,6,7,8-tetramethoxychromen-4-one], for which the “retinal vasodilating effect after treating the blood vessel with ODQ” value in assay [1] (ODQ 0.1 μM, 30 minutes, FIG. 1 (Example 1)) is given as “suppressed”. For the same molecule, in assay [1] (n=7, FIG. 4 (Example 4)), the “retinal vasodilating effect after addition of ODQ” value is given as “suppressed”. In addition, the vasodilating action result in the assay with rat aorta and in the assay with rat mesenteric artery was “vasodilating action” throughout. For the same molecule, the “vasodilating effect in artery with vascular endothelium removed (denudation) compared with artery not denuded” value in assay [2] is “suppressed”. For the same molecule, the vasodilator response entry in the assay with rat pulmonary artery is “did not occur”. The “retinal vasodilating effect compared with positive control SNP” value with porcine retinal artery (FIG. 1 (Example 1)) is “higher than that of SNP”. The molecule also registered a Maximum vasodilation rate in the assay with porcine retinal artery (concentration 10^-4M, percentage with respect to the maximum vasodilation) of 90%. Further, the retinal vasodilating effect entry in the assay on porcine retinal artery (extracted porcine retinal artery, FIG. 1 (Example 1)) is “strong retinal vasodilating effect in a dose-dependent manner”. The “vasodilating action in comparison with known medications” value with porcine retinal artery (influence of the solvent excluded, Table 1) is “most powerful vasodilating action”.
In the case of `Oc1ccc(C=Cc2cc(O)cc(O)c2)cc1` [Resveratrol], the Maximum vasodilation rate in the assay on retinal blood vessel (concentration 10^-4M) is reported as 60%.
With `CCCCCCCC(=O)CC[C@@H]1[C@@H](C/C=C\CCCC(=O)O)[C@@H](O)C[C@H]1O` [Unoprostone], in the assay with retinal blood vessel (concentration 10^-5M), the Maximum vasodilation rate was 30%.

B1: Adiponectin (protein, UniProt Q15848 19-244, looked up)
Adiponectin: ETTTQGPGVLLPLPKGACTGWMAGIPGHPGHNGAPGRDGRDGTPGEKGEKGDPGLIGPKGDIGETGVPGAEGPRGFPGIQGRKGEPGEGAYVYRSAFSVGLETYVTIPNMPIRFTKIFYNQQNHYDGSTGKFHCNIPGLYYFAYHITVYMKDVKVSLFKKDKAMLFTYDQYQENNVDQASGSVLLHLEVGDQVWLQVYGEGERNGLYADNDNDSTFTGFLLYHDTN
On to B1, for which, in the assay with retinal blood vessel (concentration 8 μg/mL), the Maximum vasodilation rate was 50%.
